Results reported in US20140323577A1, “METHODS FOR REDUCING THE RISK OF CONVERSION TO CLINICALLY DEFINITE MULTIPLE SCLEROSIS” (Sanofi-Aventis U.S. LLC, priority 2013, published 2014).

Key:
Format in all cases: in vivo, human
[1] = system: patients with a first clinical episode suggestive of multiple sclerosis; test: Time to conversion to CDMS, randomized double-blind placebo-controlled study; conditions: for Hazard ratio (95% CI), time to conversion to CDMS: Cox proportional hazard model; for Number of patients who were censored (time to conversion to CDMS) / Number of patients with conversion to CDMS: number (%); for Kaplan-Meier estimates of probability of conversion to CDMS (95% CI): ITT
Excerpt: (§1) Methodology: This was a multi-center, multinational, randomized, placebo-controlled, double blind, parallel group (3 groups) study stratified by center and baseline monofocal/multifocal status.
(§2) Diagnosis and criteria for inclusion: Patients with a first acute or subacute, well-defined neurological event consistent with demyelination with onset of MS symptoms occurring within 90 days of randomization; and abnormal MRI with 2 or more T2 lesions at least 3 mm in diameter that are characteristic of MS.
Efficacy/pharmacodynamics: The primary efficacy variable was time to CDMS defined by the occurrence of a relapse: new neurological abnormality separated by at least 30 days from onset of a preceding clinical event, present for at least 24 hours and occurring in the absence of fever or known infection.
(§3) Statistical methods: Analysis population: Efficacy analyses were based on the intent-to-treat (ITT) population consisting of all randomized patients, as randomized, who had at least 1 day exposure to study medication.
Efficacy analysis: The primary analysis of time to conversion to CDMS was performed using Cox regression model with treatment, region, and baseline monofocal/multifocal status as independent variables. The assessment of efficacy was based on (pairwise) hazard rate ratio comparisons of each active dose of teriflunomide versus placebo. Two-sided 95% confidence intervals of the hazard rates ratio were provided for each teriflunomide treatment effect estimate versus placebo. The log-rank test was provided as supportive.
(§4) Multiplicity procedure: Step down approach was used for multiplicity adjustment for 2 doses of teriflunomide and the primary and key secondary endpoints. Treatment comparison of teriflunomide 14 mg vs. placebo in time to conversion to CDMS was tested at 5% significance level. If significant, comparison of teriflunomide 7 mg vs. placebo in time to conversion to CDMS was tested at 5% significance level. If significant, comparison of teriflunomide 14 mg vs. placebo for the key secondary endpoint was tested at 5% significance level. If significant, comparison of teriflunomide 7 mg vs. placebo for the key secondary endpoint was tested at 5% significance level.

[2] = system: patients with a first clinical episode suggestive of multiple sclerosis; test: Time to conversion to DMS (dissemination of MRI lesions in time or a relapse), same study; conditions: for Hazard ratio (95% CI), time to conversion to DMS: Cox proportional hazard model; for Number of patients with conversion to DMS / Number of patients who were censored (time to conversion to DMS) / Number of patients with conversion to DMS: Dissemination of MRI lesion in time / Number of patients with conversion to DMS: Relapse: number (%); for Number of patients who were censored (time to conversion to DMS) / Number of patients with conversion to DMS: Dissemination of MRI lesion in time / Number of patients with conversion to DMS: Relapse / Kaplan-Meier estimates of probability of conversion to DMS (95% CI): ITT
Excerpt: as §1, §2, §3
(§5) The key secondary endpoint was analyzed using the same Cox regression model. ARR was analyzed using a Poisson regression model with robust error variance including the number of confirmed relapses with their onset between randomization date and last dose date as the response variable, treatment, region, and baseline monofocal/multifocal status as covariates, and log transformed standardized exposure duration as an offset variable.
as §4

[3] = system: patients with a first clinical episode suggestive of multiple sclerosis; test: Confirmed MS relapse / annualized relapse rate (ARR), same study; conditions: for Unadjusted annualized relapses rate / Total number of relapses / Number of patients with ≧1 relapses: No / Number of relapses: 0 (patients) / Number of relapses: 1 (patients) / Number of relapses: 2 (patients) / Number of relapses: >=3 (patients): ITT; for Number of patients with ≧1 relapses: Yes / Number of patients with ≧1 relapses: No / Number of relapses: 0 (patients) / Number of relapses: 1 (patients) / Number of relapses: 2 (patients) / Number of relapses: >=3 (patients): number (%); for Risk reduction of on-treatment adjusted ARR relative to placebo: non-statistically significant
Excerpt: as §1, §2, §3, §5

[4] = system: patients with a first clinical episode suggestive of multiple sclerosis; test: Study treatment discontinuation and tolerability, same study
Experimental: as §1
454 (73.9%) patients completed 108 weeks of study treatment or entered the extension: 71.6% in the placebo group, 73.2% in the teriflunomide 7 mg group, and 75.5% in the teriflunomide 14 mg group. […] The mean (±SD) age was 32.1 (±8.5) years and the study population was primarily Caucasian (96.1%).

[5] = 14 mg once daily, ITT (N = 214)
[6] = 7 mg once daily, randomized population (N = 205)
[7] = 14 mg once daily, randomized population (N = 216)

C/C(O)=C(\C#N)C(=O)Nc1ccc(C(F)(F)F)cc1 [teriflunomide, (Z)-2-cyano-3-hydroxy-but-2-enoic acid-(4′-trifluoromethylphenyl)-amide]
Hazard ratio (95% CI), time to conversion to CDMS ([1]; 7 mg once daily vs placebo, P-value 0.0271, log-rank P 0.0422): 0.628 | Number of patients who were censored (time to conversion to CDMS) ([1]; 7 mg once daily, ITT (N = 203)): 164 (80.8%) | Number of patients with conversion to CDMS ([1]; 7 mg once daily, ITT population (N = 203)): 39 (19.2%) | Kaplan-Meier estimates of probability of conversion to CDMS (95% CI) ([1]; 7 mg once daily, at 24 weeks): 0.087 | Kaplan-Meier estimates of probability of conversion to CDMS (95% CI) ([1]; 7 mg once daily, at 48 weeks): 0.142 | Estimated cumulative rate of conversion to CDMS ([1]; 7 mg once daily, at 108 weeks): 27.6% | Kaplan-Meier estimates of probability of conversion to CDMS (95% CI) ([1]; 7 mg once daily, at 108 weeks): 0.276 | Reduction of the risk of conversion to CDMS compared to placebo ([1]; 7 mg once daily, p=0.0271): 37.2% | Hazard ratio (95% CI), time to conversion to CDMS ([1]; 14 mg once daily vs placebo, P-value 0.0087, log-rank P 0.0133): 0.574 | Number of patients who were censored (time to conversion to CDMS) [1, 5]: 176 (82.2%) | Number of patients with conversion to CDMS ([1]; 14 mg once daily, ITT population (N = 214)): 38 (17.8%) | Kaplan-Meier estimates of probability of conversion to CDMS (95% CI) ([1]; 14 mg once daily, at 24 weeks): 0.090 | Kaplan-Meier estimates of probability of conversion to CDMS (95% CI) ([1]; 14 mg once daily, at 48 weeks): 0.137 | Estimated cumulative rate of conversion to CDMS ([1]; 14 mg once daily, at 108 weeks): 24.0% | Kaplan-Meier estimates of probability of conversion to CDMS (95% CI) ([1]; 14 mg once daily, at 108 weeks): 0.240 | Reduction of the risk of conversion to CDMS compared to placebo ([1]; 14 mg once daily, p=0.0087): 42.6% | Hazard ratio (95% CI), time to conversion to DMS ([2]; 7 mg once daily vs placebo, P-value 0.0020, log-rank P 0.0028): 0.686 | Number of patients with conversion to DMS ([2]; 7 mg once daily, ITT (N = 203)): 125 (61.6%) | Number of patients who were censored (time to conversion to DMS) ([2]; 7 mg once daily): 78 (38.4%) | Number of patients with conversion to DMS: Dissemination of MRI lesion in time ([2]; 7 mg once daily): 110 (54.2%) | Number of patients with conversion to DMS: Relapse ([2]; 7 mg once daily): 15 (7.4%) | Kaplan-Meier estimates of probability of conversion to DMS (95% CI) ([2]; 7 mg once daily, at 24 weeks): 0.457 | Kaplan-Meier estimates of probability of conversion to DMS (95% CI) ([2]; 7 mg once daily, at 48 weeks): 0.573 | Estimated cumulative rate of conversion to DMS (dissemination of MRI lesions in time or confirmed relapse) ([2]; 7 mg once daily, at 108 weeks): 73.3% | Kaplan-Meier estimates of probability of conversion to DMS (95% CI) ([2]; 7 mg once daily, at 108 weeks): 0.733 | Reduction of the risk of conversion to DMS (dissemination of MRI lesions in time or a relapse) compared to placebo ([2]; 7 mg once daily, p=0.0020): 31.4% | Hazard ratio (95% CI), time to conversion to DMS ([2]; 14 mg once daily vs placebo, P-value 0.0003, log-rank P 0.0002): 0.651 | Number of patients with conversion to DMS [2, 5]: 136 (63.6%) | Number of patients who were censored (time to conversion to DMS) ([2]; 14 mg once daily): 78 (36.4%) | Number of patients with conversion to DMS: Dissemination of MRI lesion in time ([2]; 14 mg once daily): 111 (51.9%) | Number of patients with conversion to DMS: Relapse ([2]; 14 mg once daily): 25 (11.7%) | Kaplan-Meier estimates of probability of conversion to DMS (95% CI) ([2]; 14 mg once daily, at 24 weeks): 0.460 | Kaplan-Meier estimates of probability of conversion to DMS (95% CI) ([2]; 14 mg once daily, at 48 weeks): 0.578 | Estimated cumulative rate of conversion to DMS (dissemination of MRI lesions in time or confirmed relapse) ([2]; 14 mg once daily, at 108 weeks): 71.5% | Kaplan-Meier estimates of probability of conversion to DMS (95% CI) ([2]; 14 mg once daily, at 108 weeks): 0.715 | Reduction of the risk of conversion to DMS (dissemination of MRI lesions in time or a relapse) compared to placebo ([2]; 14 mg once daily, p=0.0003): 34.9% | Adjusted annualized relapse rate, Relative risk (95% CI) ([3]; 7 mg once daily vs placebo, P-value 0.0541): 0.669 | Adjusted annualized relapse rate, Risk difference (95% CI) ([3]; 7 mg once daily vs placebo, P-value 0.0576): −0.094 | Unadjusted annualized relapses rate ([3]; 7 mg once daily): 0.209 | Number of patients with ≧1 relapses: Yes ([3]; 7 mg once daily, ITT (N = 203)): 42 (20.7%) | Total number of relapses ([3]; 7 mg once daily, 258.5 patient-years followed): 54 | Number of patients with ≧1 relapses: No ([3]; 7 mg once daily): 161 (79.3%) | Number of relapses: 0 (patients) ([3]; 7 mg once daily): 161 (79.3%) | Number of relapses: 1 (patients) ([3]; 7 mg once daily): 33 (16.3%) | Number of relapses: 2 (patients) ([3]; 7 mg once daily): 7 (3.4%) | Number of relapses: >=3 (patients) ([3]; 7 mg once daily): 2 (1.0%) | Risk reduction of on-treatment adjusted ARR relative to placebo ([3]; 7 mg once daily, p=0.0541): 33.1% | Adjusted annualized relapse rate, Relative risk (95% CI) ([3]; 14 mg once daily vs placebo, P-value 0.0579): 0.681 | Adjusted annualized relapse rate, Risk difference (95% CI) ([3]; 14 mg once daily vs placebo, P-value 0.0628): −0.091 | Unadjusted annualized relapses rate ([3]; 14 mg once daily): 0.208 | Number of patients with ≧1 relapses: Yes [3, 5]: 45 (21.0%) | Total number of relapses ([3]; 14 mg once daily, 288.9 patient-years followed): 60 | Number of patients with ≧1 relapses: No ([3]; 14 mg once daily): 169 (79.0%) | Number of relapses: 0 (patients) ([3]; 14 mg once daily): 169 (79.0%) | Number of relapses: 1 (patients) ([3]; 14 mg once daily): 33 (15.4%) | Number of relapses: 2 (patients) ([3]; 14 mg once daily): 10 (4.7%) | Number of relapses: >=3 (patients) ([3]; 14 mg once daily): 2 (0.9%) | Risk reduction of on-treatment adjusted ARR relative to placebo ([3]; 14 mg once daily, p=0.0579): 31.9% | Study treatment discontinuation: Adverse event (number of patients) [4, 6]: 25 | Study treatment discontinuation: Death (number of patients) [4, 6]: 0 | Study treatment discontinuation: Lack of efficacy [4, 6]: (2.9%) | Study treatment discontinuation: Lack of efficacy (number of patients) [4, 6]: 6 | Study treatment discontinuation: Progressive Disease [4, 6]: (0.5%) | Study treatment discontinuation: Progressive Disease (number of patients) [4, 6]: 1 | Study treatment discontinuation: Adverse event (number of patients) [4, 7]: 18 | Study treatment discontinuation: Death (number of patients) [4, 7]: 0 | Study treatment discontinuation: Lack of efficacy [4, 7]: (5.6%) | Study treatment discontinuation: Lack of efficacy (number of patients) [4, 7]: 12 | Study treatment discontinuation: Progressive Disease (number of patients) [4, 7]: 0 | Tolerability / safety profile ([4]; both doses (7 mg and 14 mg once daily)): well tolerated with a manageable safety profile
